Test results from patent US10450613B2, “EGFR/NEDD9/TGF-β interactome and methods of use thereof for the identification of agents having efficacy in the treatment of hyperproliferative disorders” (Fox Chase Cancer Center, priority 2007, dated 2019).

What was measured:
A431 cells [1] = assay: Drug synergy testing (Chou-Talalay CI), viability; assay type: cell-based, human; details: 72 hours, CI <1 synergy, <0.5 strong synergy
Description: (§1) The coefficient of interaction (CI) between pharmacological inhibitors was established by the Chou-Talalay method (Chou et al., (1984) Adv Enzyme Regul 22:27). The software package CalcuSyn (BioSoft, UK) was used to automate calculations. Briefly, for each drug tested, an IC50 curve was established in each cell line, and used to select combination doses of drugs for subsequent synergy tests. 3500 cells were plated per well in 96-well plates. After 24 hours, cells were treated with serial dilutions of individual inhibitors, or combinations of two inhibitors maintained at a constant molar ratio. After 72 hours incubation, cell viability was measured using either CellTiter Blue (Promega, USA) or a WST1 assay (Roche Applied Science, Indianapolis, Ind.). The CI values for each dose and corresponding cytotoxicity were expressed as the fraction affected (Fa) and were calculated using CalcuSyn computer software and presented as Fa-CI plots. CI values <1 indicate synergy, and <0.5 strong synergy, between the two agents in producing cytotoxic effect.

HCT116 cells [2] = assay: Drug synergy testing (Chou-Talalay CI), viability; assay type: cell-based, human
Description: as §1

cancer cells = assay: Drug synergy testing (Chou-Talalay CI), cell line not stated (FIG. 17B); assay type: cell-based
Description: as §1

HCT116 cells [3] = assay: Apoptosis after drug combination treatment; assay type: cell-based, human; details: HCT116, 72 hours (FIG. 17C)
[4] = tested on: EGFR, ERK1/2 and AKT phosphorylation; assay: Western analysis of EGFR pathway after inhibitor treatment and EGF stimulation; assay type: cell-based, human
A431 cells [5] = assay: Phosphoproteomic analysis, Proteome Profiler array of 46 signaling proteins; assay type: cell-based, human
Description: For phosphoproteomic analysis, we used the Proteome Profiler™ array (R&D Systems, Minneapolis, Minn., USA) according to the manufacturer's protocol. In brief, A431 cells were grown for 24 hours in DMEM supplemented with L-glutamine and 1% FBS to 70% confluency. Cells then were either serum starved overnight or remained in the same media. Serum starved and cells incubated in 1% serum were either left untreated or incubated with IC30 concentrations of inhibitors for 3 hours. […] Serum-starved cells were subsequently stimulated with recombinant EGF (Sigma-Aldrich, USA) at 15 ng/mL for 15 minutes before lysis. For a subset of phospho-proteins, phosphorylation status was confirmed by Western blot. Quantification was done using ImageJ software.

[6] = PHA-680632 alone, transient EGF stimulation
[7] = A431, serum starved, EGF-stimulated (FIG. 19A)

CCc1cccc(CC)c1NC(=O)N1Cc2n[nH]c(NC(=O)c3ccc(N4CCN(C)CC4)cc3)c2C1 [PHA-680632]
Synergy with erlotinib in reducing viability (Chou-Talalay CI) (A431 cells [1]): synergized strongly | Cell viability, combination with erlotinib (HCT116 cells [2]; HCT116 (FIG. 17D)): Dose-dependent inhibition | Synergy with erlotinib in reducing viability (Chou-Talalay CI) (HCT116 cells [2]; HCT116, 72 hours, CI <1 synergy, <0.5 strong synergy): synergized strongly | Synergy with cetuximab (Chou-Talalay CI) (cancer cells): synergized | Frequency of apoptosis, combination with erlotinib (HCT116 cells [3]): increases apoptosis | S473-AKT phosphorylation, combination with erlotinib ([4]; 3 hrs inhibitors then EGF, vs either agent alone (FIGS. 17H, 18; HCT116)): very significantly reduced | EGFR expression, autophosphorylation, and activation [4, 6]: did not inhibit | ERK1/2 or AKT phosphorylation [4, 6]: little effect | Phosphorylation of 46 signaling proteins, combination of erlotinib and PHA-680632 (A431 cells [5]; A431, 1% serum steady state, erlotinib 0.5 μM plus PHA 0.1 μM (FIG. 19B)): significant reduction in activity of STAT3, and a group of Src kinases | Phosphorylation of 46 signaling proteins, combination of erlotinib and PHA-680632 (A431 cells [5]; [7]): specific inhibition of a subset of proteins | Phosphorylation of 46 signaling proteins, single agent (A431 cells [5]; [7]): little effect
